From article PMC8882908, “Tricyclic Antidepressant Structure-Related Alterations in Calcium-Dependent Inhibition and Open-Channel Block of NMDA Receptors” (Frontiers in Pharmacology, 2022)
“And” between values parts separate entries of the source, which are not always exact repeats. Identical values can stand only once. Like-named read-outs stand apart in the source and are kept apart here. One block for each compound: values may come before it.

What was measured:
[1] = molecular target: N-methyl-D-aspartate receptors (NMDARs); conditions: read-out: model-predicted IC50; [Ca2+] = 2.5 mM, Vm = −70 mV
Excerpt: To obtain the voltage-dependence of NMDAR block by TCAs, the concentration-ihibition curves were generated at three membrane holding potentials Vm = −100, −70, and −30 mV. The obtained values were fitted with the modified by incorporating the dependence of NMDAR inhibition on [Ca^2+] ([Stepanenko et al., 2019]) Woodhull equation: IC50(Vm[Ca^2+])=IC50(0 mV)·exp(VmzδF/RT)·exp(-[Ca^2+]/X) (6) where IC50 (0 mV) and δ were set as free parameters. IC50 (0 mV) is the value of IC50 at Vm = 0 mV, δ is the fraction of the membrane voltage field exerting force on TCA at its binding site. z = 1 is a molecule electric charge for both DES and CLO. For Faraday constant, gas constant, and room temperature of 28°C, the RT/F ≈ 26 mV. RT/(zδF) is equal to Vm, producing an e-fold change of IC50, and X is equal to [Ca^2+], producing an e-fold change of IC50.
The model is described by Eq. 6 IC50 (Vm, [Ca^2+]) = IC50 (0 mV) • exp (Vm/(e-fold change Vm)) • exp (- [Ca^2+]/(e-fold change [Ca^2+])). The dependences of TCA IC50s on [Ca^2+] […]
FIGURE 7 Predicted IC50 values for NMDAR inhibition by tricyclic antidepressants as a function of membrane voltage (Vm) and external [Ca^2+]. […] The IC50s were calculated as IC50(Vm, [Ca^2+]) = IC50(0 mV) · exp (Vm/Y) ·exp(-[Ca^2+]/X), where X is equal to the [Ca^2+] value required for an e-fold change of IC50, and Y is equal to the Vm value required for an e-fold change of IC50.

NMDARs = conditions: cited from earlier work
[2] = tested on: N-methyl-D-aspartate receptors (NMDARs); conditions: for δ, fraction of the membrane electric field to the binding site: Woodhull model, from the outside
Experimental: All procedures on animals were performed in accordance with the guide of the Federation for Laboratory Animal Science Associations (FELASA) and were approved by the Animal Care and Use Committees of Sechenov Institute. Briefly, 17 days pregnant Wistar rats (supplied by the Sechenov Institute Animal Facility) were sacrificed by 1 min CO2 inhalation in a plastic box connected to a CO2 tank. Fetuses were removed, and then primary cultures of rat cortical neurons were prepared using conventional procedures as described earlier ([Antonov and Johnson 1996]; [Mironova et al., 2007]). Neurons were grown in Neurobasal culture medium supplemented with B-27 (Gibco-Invitrogen, United Kingdom) on 7 mm glass coverslips coated with poly-D-lysine and were used for experiments after 10–14 days in culture ([Mironova et al., 2007]; [Han and Stevens 2009]).
Whole-cell currents were recorded from cultured rat cortical neurons using a MultiClamp 700B patch-clamp amplifier. Recordings were low-pass filtered at 400 Hz and digitized at the acquisition rate of 20,000 samples per second by Digidata 1440A controlled by pClamp v10.6 software (Molecular Devices). Solution exchange was performed by means of a fast solution application system as described earlier ([Sibarov et al., 2015]). Unless otherwise specified, the external bathing solution contained (in mM): 144 NaCl; 2.8 KCl; 1.0 CaCl2; 10 HEPES, at pH 7.2–7.4, osmolarity 310 mOsm. The intrapipette solution contained (in mM): 120 CsF, 10 CsCl, 10 EGTA, and 10 HEPES, osmolarity 300 mOsm, with pH adjusted to 7.4 with CsOH. Patch pipettes of 4–6 MΩ were pulled from Sutter BF150-89-10 borosilicate capillaries. Experiments were performed at 22–25°C. Under control conditions, neurons were voltage clamped at −70 mV. Data are reported without corrections for liquid junction potential, which was measured as −11 mV. To activate NMDARs, 100 µM NMDA was always co-applied with 10 µM glycine as co-agonist. Some experiments were performed on neurons loaded with BAPTA. To load BAPTA, cortical neuron cultures were incubated in a bathing solution containing 5 µM BAPTA-AM for 1 h.
To determine the blocking potency of TCAs, NMDA elicited currents were measured in the absence and presence of different TCA concentrations ([B]). Amplitudes of currents measured in the presence of blocker (Ib) were normalized to maximal current response in control (Ic). The IC50 is the concentration of TCA that cause 50% of the maximal inhibition of currents, and the Hill coefficient (h) were estimated by fitting concentration-inhibition curves with the Hill equation: Ib/Ιc=1/(1+[Β]^h/ΙC50h) (1)
To obtain the voltage-dependence of NMDAR block by TCAs, the concentration-ihibition curves were generated at three membrane holding potentials Vm = −100, −70, and −30 mV. The obtained values were fitted with the modified by incorporating the dependence of NMDAR inhibition on [Ca^2+] ([Stepanenko et al., 2019]) Woodhull equation: IC50(Vm[Ca^2+])=IC50(0 mV)·exp(VmzδF/RT)·exp(-[Ca^2+]/X) (6) where IC50 (0 mV) and δ were set as free parameters. […] For Faraday constant, gas constant, and room temperature of 28°C, the RT/F ≈ 26 mV. RT/(zδF) is equal to Vm, producing an e-fold change of IC50, and X is equal to [Ca^2+], producing an e-fold change of IC50.

[3] = design: method as in Stern et al., 1980; McTavish and Benfield 1990; conditions: ref Stern et al., 1980; McTavish and Benfield 1990; cited from earlier work
[4] = tested on: N-methyl-D-aspartate receptors (NMDARs); experiment: Kinetics of NMDAR open-channel block and trapping block (block/unblock relaxations, AP5 washout protocol); type: cell-based, rat
Experimental: Experiments were performed at 22–25°C.
NMDAR current relaxations during block or unblock by TCA were fit with the single exponential equation: I =(Imax-Imin)·exp (-t/τ)+Imin (2) where Imax and Imin are maximal and minimal amplitudes of currents during relaxations and τ represents the time constant of the exponential component during block onset (τon) or offset (unblock, τoff). From these measurements, the rate constants of block (k^+) and unblock (k^−) was estimated. k^+ was obtained from τon measured at 20 and 90 μM DES (C1 and C2 respectively) using the equation: k^+=(1 /τonC2-1/τonC1)/(C2 - C1) (3)
The k^− was the reciprocal to measured τoff: k^-=1 /τoff (4)
The equilibrium dissociation constant (Kd) for DES was calculated as follows: Kd=k^-/ k^+ (5)
The rise time of currents activated by the testing NMDA + Gly application in trapping channel block experiments was fitted in ClampFit (pClamp, Axon Instruments) using the double exponential function: I=I1·exp(-t/τ1)+I2·exp(-t/τ2)- C (7) where I1 and I2 are amplitudes of the exponential and τ1 and τ2 are time constants of the exponential and C equals I1 + I2 + Ib.
To study the kinetics of open-channel block of NMDARs by DES, we performed experiments at a single Vm = −70 mV using a Ca^2+-free bathing solution to avoid the influence of the Ca^2+-dependent process. DES was applied at a steady state of NMDAR currents at high (90 μM) or low (20 μM) concentrations (Figure 4A). DES-induced block corresponds well to basic predictions of an open-channel block. The block onset (τon) and offset (τoff) were well fit by a single exponential function (Eq. 2). […] The rate constants of block and unblock calculated on the basis of Eqs 3, 4 were k^+ = 0.008 ± 0.002 s^−1 μM^−1; k^− = 0.039 ± 0.005 s^−1, correspondently.
The absence in records of “tail currents” upon the simultaneous removal of agonists and a blocker may speak in favor of trapping of the blocking molecule inside of the pore ([Costa and Albuquerque 1994]; [Vorobjev and Sharonova 1994]; [Benveniste and Mayer 1995]; [Sobolevsky et al., 1999]). We, therefore, further tested the possibility of trapping of DES in the pore of NMDARs by the channel closure. A series of experiments were carried out following the protocol used previously for ATL ([Stepanenko et al., 2019]). After reaching an equilibrium of NMDA-mediated currents, 90 μM DES was applied to the cell for 10 s until the development of a stable block with a small amount of residual current (Ib) (Figure 4C). […] Single exponential approximation of the data at Figure 4E (dashed line) elicits the time constant of 7.7 ± 1.8 s for DES escape from trapping, representing the quantitative characteristic of DES partial trapping block.

NMDAR channels = tested on: NMDAR channels; design: method as in Reynolds and Miller 1988; conditions: ref Reynolds and Miller 1988; cited from earlier work

IC50 [1]: 1.6 µM
Structure (SMILES): CN(C)CCC=C1c2ccccc2CCc2ccccc21 [ATL, amitriptyline]
e-fold change Vm (NMDARs; ref Stepanenko et al., 2019): 54 mV
e-fold change [Ca2+] (NMDARs; ref Stepanenko et al., 2019): 0.63 mM
time constant of escape from trapping block (NMDARs; ref Stepanenko et al., 2019): about 1.2 s
δ, fraction of the membrane electric field (NMDARs; ref Stepanenko et al., 2019): 0.51
IC50 (NMDARs; ref Stepanenko et al., 2019, read-out: IC50(0 mV)): 321 µM

Structure (SMILES): CN(C)CCCN1c2ccccc2CCc2ccc(Cl)cc21 [CLO, clomipramine]
δ, fraction of the membrane electric field to the binding site [2]: 0.51
therapeutic blood concentrations [3]: 0.3 to 1 µM

Structure (SMILES): CNCCCN1c2ccccc2CCc2ccccc21 [DES, desipramine]
fold lesser rate of dissociation from channels than ATL [4]: about 5 folds
rate constant of unblock k− ([4]; Vm = −70 mV, Ca2+-free solution, 1/τoff): 0.039 ± 0.005 s⁻¹
rate constant of block k+ ([4]; Vm = −70 mV, Ca2+-free solution, from τon at 20 and 90 μM): 8000 ± 2000 M⁻¹ s⁻¹
Kd ([4]; Vm = −70 mV, Ca2+-free solution, read-out: equilibrium dissociation constant Kd = k−/k+): 4.7 ± 1.9 µM
fold drop of IC50 on increasing extracellular [Ca2+] from 0 to 1 mM [2]: 5 fold
fold smaller Vm shift for an e-fold change of IC50 than ATL or CLO [2]: ~1.5 folds
δ, fraction of the membrane electric field to the binding site [2]: 0.71
open-channel block potency relative to ATL ([2]; based on IC50 (0 mV)): about 5 folds
e-fold change Vm (Vm shift giving an e-fold change of IC50) ([2]; fit with Eq. 6): 37 ± 3.4 mV and 37 mV and 36.9 ± 3.4 mV
e-fold change [Ca2+] ([Ca2+] shift giving an e-fold change of IC50) ([2]; fit with Eq. 6, Vm = −70 mV): 590 µM and 590 ± 70 µM
IC50 ([2]; read-out: IC50(0 mV), value of IC50 at Vm = 0 mV from fit with Eq. 6 (Woodhull)): 60 ± 5.7 µM
IC50 ([2]; read-out: IC50 of the inhibition of NMDAR currents, Vm = −30 mV, [Ca2+] = 0): 27 µM
IC50 ([2]; read-out: IC50 of the inhibition of NMDAR currents, Vm = −30 mV, [Ca2+] = 1 mM): 4.85 µM
IC50 ([2]; read-out: IC50 of the inhibition of NMDAR currents, Vm = −70 mV, [Ca2+] = 0): 8.3 µM
IC50 ([2]; read-out: IC50 of the inhibition of NMDAR currents, Vm = −70 mV, [Ca2+] = 1 mM): 1.75 µM
IC50 ([2]; read-out: IC50 of the inhibition of NMDAR currents, Vm = −70 mV, [Ca2+] = 4 mM): 1.8 µM and 1.81 µM
IC50 ([2]; read-out: IC50 of the inhibition of NMDAR currents, Vm = −100 mV, [Ca2+] = 1 mM): 0.89 µM
fold IC50 decrease with Vm shift from −30 to −100 mV ([2]; regardless of extracellular calcium): 5.4 fold
IC50 [1]: 0.13 µM
e-fold change Vm (NMDARs; 5 μM NMDA, physiological extracellular Ca2+, ref Sernagor et al., 1989): 36 mV
IC50 (NMDARs; 5 μM NMDA, physiological extracellular Ca2+, ref Sernagor et al., 1989, read-out: IC50): 9.8 µM
IC50 (NMDARs; Vm = −70 mV, extracellular Ca2+ present, 100 μM NMDA, ref Barygin et al., 2017, read-out: IC50): 1.4 µM
IC50 (NMDARs; Vm = −70 mV, extracellular Ca2+ present, 100 μM NMDA, ref Nothdurfter et al., 2013, read-out: IC50): 2.7 µM
IC50 (NMDARs; varying experimental conditions, ref Reynolds and Miller 1988, Sernagor et al., 1989, Nothdurfter et al., 2013, Barygin et al., 2017, read-out: IC50 values reported for NMDAR inhibition): 1.4 to 9.8 µM
concentration displacing MK-801 from the NMDAR channels (NMDAR channels): 7.41 µM
